# Laboratory results as given in patent US10472380B2, “Platinum compounds having a heterocycle ligand, nanoparticles, and uses thereof” (PLACON THERAPEUTICS, INC., priority 2013, dated 2019).
# How the values were obtained:
# A549 cells = test: DNA platination in cells, DNA extracts analyzed by GFAA; format: cell-based; conditions: 60 μM, 2 hours at 37° C.
# Experimental: 5×10^6 A549 cells were received in tubes from Nobel Life Sciences in 10% FBS, 5% DMSO. Upon thawing, cells were washed with RPMI to remove the DMSO. […] Cells were then lysed and applied to a DNEasy™ DNA purification kit. The resulting DNA extracts were then analyzed by GFAA.
# calf thymus DNA = conditions: general statement on classic platinum agents; cited from earlier work
# A549 tumor cell line = test: CellTiter-Glo cell viability assay in A549 tumor cell line; format: cell-based; conditions: CellTiter-Glo luminescence
# Experimental: The cell suspension was transferred to a centrifuge tube and centrifuged at 800-1000 rpm for 3-5 minutes.
# The lyophilized CellTiter-Glo substrate was equilibrated to room temperature prior to use.
# The contents were mixed for 2 minutes on an orbital shaker to induce cell lysis.
IC50 (A549 tumor cell line) [µM],Compound,"DNA platination, % of Cisplatin standard (A549 cells) [%]",DNA associated platinum in this type of experiment (calf thymus DNA)
–,N.N.[Cl][Pt][Cl] [Cisplatin],100,high degree of DNA associated platinum
4.3,"Di-1,1,3,3-tetramethylbutylcarbamate, ammonia quinoplatinium (II) [Compound 19]",–,–
